{"source": "patent US9359645B2", "about": "“Methods for detecting diabetic nephropathy comprising measuring the expression of Smad1” (HUBIT GENOMIX INC., priority 2003, dated 2016)", "system": "Smad1", "assay": "Smad1 morpholino antisense oligonucleotide in AGEs-treated mesangial cells (Smad1 and Col4 expression)", "assay_type": "cell-based, mouse", "conditions": "for AGEs-mediated overproduction (overexpression) of Col4: mesangial cells treated with AGEs; for AGEs-mediated induction of Smad1: mesangial cells, 72 hr AGEs then 16 hr with oligo", "method": "A glomerular mesangial cell strain was established from glomeruli isolated from normal, 4 week-old mice (C57BL/6JxSJL/J), and was identified according to the method previously described (S1). The mesangial cells were cultured in B medium (a 3:1 mixture of minimal essential medium/F12 modified with trace elements) supplemented with 1 mM glutamine, 100 units/ml penicillin, […] streptomycin and 20% fetal calf serum. The cultured cells fulfilled the criteria generally accepted for glomerular mesangial cells (S2). AGEs or BSA exposure was carried out as described previously (S3).\nMesangial cells were cultured in the presence of AGEs or BSA (as control) for 72 hours. Cells were harvested in sample buffer, resolved by SDS-polyacrylamide gel electrophoresis and transferred to nitro-cellulose membrane and subjected to Western blot using a 1:500 dilution of anti-Smad1 antibody and anti-pSmad1 antibody (Santa Cruz Biotechnology), followed by detection using an enhanced chemiluminescence detection system (Invitrogen, Carlsbad, Calif.).\nCultured cells were fixed in 4% paraformaldehyde. The following antibodies were used: anti-Smad1 antibody, 1:100 (Santa Cruz Biotechnology); anti-pSmad1 antibody, 1:100 (Calbiochem). An appropriate fluoresceine isothiocyanate-conjugated secondary antibody was used for visualization and imaging was done using a laser microscope and a fluorescent microscope (Olympus, Tokyo, Japan).\nThe antisense oligonucleotide used was a 25-nucleotide morpholino oligo (Genetools LLC, Philomath, Oreg.). The sequence is 5′-[…]-3′ (SEQ ID NO: 13). As a control, an oligo with the base composition 5′-CAtGCTcGTCACATTCAaAGCcGCT-3′ (SEQ ID NO: 18) was used. In vitro RNA transcription was performed as previously described (S7)."}
{"substance": "Smad1 mismatch oligo: control oligo 5′-CAtGCTcGTCACATTCAaAGCcGCT-3′ (SEQ ID NO: 18) (CATGCTCGTCACATTCAAAGCCGCT; listed as DNA, chemistry not given here)", "values": [{"measurement": "AGEs-mediated overproduction (overexpression) of Col4", "value": "no effect"}, {"measurement": "AGEs-mediated induction of Smad1", "value": "not"}]}
{"substance": "antisense oligo to Smad1: 25-nucleotide morpholino oligo, 5′-CAAGCTGGTCACATTCATAGCGGCT-3′ (SEQ ID NO: 13) (all phosphorodiamidate morpholino (PMO))", "values": [{"measurement": "AGEs-mediated overproduction (overexpression) of Col4", "value": "remarkably attenuates"}, {"measurement": "AGEs-mediated induction of Smad1", "value": "completely abolished"}]}
